Assays:
WT GlyT2 [1] = molecular target: T1, WT GlyT2 (Homo sapiens, UniProt Q9Y345); experiment: Inhibitor washout time course (reversibility), control and MβCD-treated oocytes; type: cell-based; parameters: expressed in transfected cells; host or cells: Xenopus laevis oocytes injected with in vitro transcribed RNA (pOTV vector)
T1 sequence (Q9Y345 1-797): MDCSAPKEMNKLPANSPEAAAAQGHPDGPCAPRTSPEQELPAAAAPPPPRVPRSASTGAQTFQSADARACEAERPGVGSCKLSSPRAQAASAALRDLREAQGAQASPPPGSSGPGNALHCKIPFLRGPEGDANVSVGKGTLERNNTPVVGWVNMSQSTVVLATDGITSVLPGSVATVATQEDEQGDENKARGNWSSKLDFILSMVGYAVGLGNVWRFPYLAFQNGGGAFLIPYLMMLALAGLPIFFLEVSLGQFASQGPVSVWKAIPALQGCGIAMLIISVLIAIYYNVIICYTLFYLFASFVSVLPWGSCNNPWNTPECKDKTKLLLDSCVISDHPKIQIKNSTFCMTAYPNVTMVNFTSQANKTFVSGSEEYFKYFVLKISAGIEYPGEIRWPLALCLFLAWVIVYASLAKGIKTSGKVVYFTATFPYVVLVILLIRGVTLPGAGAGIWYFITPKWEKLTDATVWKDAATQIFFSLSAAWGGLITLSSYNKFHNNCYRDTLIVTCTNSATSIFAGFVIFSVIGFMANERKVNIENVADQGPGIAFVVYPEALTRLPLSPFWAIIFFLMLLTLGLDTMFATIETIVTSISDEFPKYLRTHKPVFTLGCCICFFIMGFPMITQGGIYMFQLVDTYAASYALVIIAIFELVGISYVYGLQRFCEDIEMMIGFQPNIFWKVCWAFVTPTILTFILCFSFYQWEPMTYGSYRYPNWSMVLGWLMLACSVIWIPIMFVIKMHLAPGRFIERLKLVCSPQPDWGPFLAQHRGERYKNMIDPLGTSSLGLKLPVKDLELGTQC
Protocol: Individual oocytes were incubated at 32°C for 30 min in 15 mM MβCD or γCD, suspended in frog Ringer’s solution.
Reversibility of GlyT2 inhibitors was determined by applying an EC50 concentration of glycine followed by co-application of the inhibitor at an IC50 concentration once a stable current had been achieved. Inhibitors were applied for 4 min as this was sufficient time to produce substantial inhibition for each compound and allowed for their direct comparison. At the conclusion of 4 min (time 0), ND96 buffer was perfused through the recording chamber to wash the oocyte. […] Transport currents were normalized to glycine currents in the absence of inhibitor and converted to % recovery values via Y=It−It=0/Imax−It=0, where Y is % recovery, I is current in nA, Imax is the maximal current produced by the glycine EC50, and t is time in minutes. Washout kinetics were then determined by fitting % recovery values to the first-order rate equation: Y=(Y0−Plateau).e^(−Kt)+Plateau, where Y is the % recovery, Y0 is the point, which crosses the Y-axis (constrained to 0) and increases to the plateau (constrained to between 0 and 100), K is the rate constant (1/t), and t is time in minutes. […] Because of the slowly […] nature of the inhibitors, washout time courses involving cyclodextrin treatment could not be performed on the same cell. […] As these experiments could not occur on the same cell, differences in half-life and maximal recovery were analysed via an unpaired two-tailed t test.

WT GlyT2 [2] = molecular target: T1, WT GlyT2; settings: read-out: Glycine EC50; WT GlyT2 in Xenopus laevis oocytes; glycine 1 μM – 3 mM
Protocol: (§1) The transport activity of GlyT2 is an electrogenic process as it couples the transport of glycine to the co-transport of 3 Na^+ and 1 Cl^− and thus can be measured using two-electrode voltage-clamp electrophysiology. Oocytes expressing GlyTs were voltage-clamped at −60 mV, and glycine-induced whole-cell currents were measured using a GeneClamp 500 amplifier (Axon Instruments), and a PowerLab 2/26 chart recorder (ADInstruments) and LabChart Software (ADInstruments).
(§2) Functionality of WT and mutant GlyT2 transporters was assessed by applying increasing concentrations of glycine (1–3,000 µM) in ND96 until a stable current was achieved. Glycine concentrations were applied individually and completely removed from the system via washing with recording buffer before proceeding to the next concentration. EC50 values for each transporter were determined by fitting concentration–response data to the modified Michaelis–Menten equation: I=([Gly].Imax)/(EC50+[Gly]), where I is current in nA, [Gly] is the concentration of glycine, Imax is the current generated by a maximal concentration of glycine, and EC50 is the concentration of glycine that generates a half-maximal current.

GlyT2 F515V mutant = GlyT2 F515V mutant (Homo sapiens, UniProt Q9Y345, F515V); settings: read-out: Glycine EC50; F515V (TM7)
Chain of GlyT2 F515V mutant (Q9Y345 whole entry F515V): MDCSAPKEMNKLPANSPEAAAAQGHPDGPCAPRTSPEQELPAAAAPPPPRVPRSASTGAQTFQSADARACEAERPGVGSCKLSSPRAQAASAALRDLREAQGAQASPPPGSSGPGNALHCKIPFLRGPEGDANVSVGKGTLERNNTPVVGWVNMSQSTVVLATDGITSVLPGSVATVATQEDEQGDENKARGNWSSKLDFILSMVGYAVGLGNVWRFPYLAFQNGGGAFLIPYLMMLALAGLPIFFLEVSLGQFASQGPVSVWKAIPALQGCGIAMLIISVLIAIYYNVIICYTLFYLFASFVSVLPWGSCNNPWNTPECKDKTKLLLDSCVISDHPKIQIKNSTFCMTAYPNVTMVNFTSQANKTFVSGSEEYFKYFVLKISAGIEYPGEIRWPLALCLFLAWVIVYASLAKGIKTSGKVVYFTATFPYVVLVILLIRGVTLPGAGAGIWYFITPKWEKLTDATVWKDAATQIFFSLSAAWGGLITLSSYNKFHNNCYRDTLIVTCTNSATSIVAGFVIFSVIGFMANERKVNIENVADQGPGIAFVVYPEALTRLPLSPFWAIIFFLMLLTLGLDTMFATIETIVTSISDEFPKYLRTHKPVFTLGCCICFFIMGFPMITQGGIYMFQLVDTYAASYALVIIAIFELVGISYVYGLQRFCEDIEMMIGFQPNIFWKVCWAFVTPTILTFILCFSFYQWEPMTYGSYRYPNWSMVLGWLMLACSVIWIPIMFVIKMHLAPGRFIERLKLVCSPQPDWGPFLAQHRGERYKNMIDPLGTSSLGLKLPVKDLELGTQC
Text: GlyT2a (referred to herein as GlyT2) was subcloned into the plasmid oocyte transcription vector (pOTV) for expression in Xenopus laevis oocytes. Oligonucleotide primers incorporating desired mutations were synthesized by Sigma-Aldrich and used to generate point mutations in the GlyT2 cDNA/pOTV construct using the Q5 site-directed mutagenesis kit (New England Biolabs [Genesearch]). Amplified PCR products were transformed into chemically competent E. coli cells and purified using the GeneJET Plasmid Miniprep Kit (Thermo Fisher Scientific). Purified plasmid DNA was sequence-verified by the Australian Genome Research Facility. pOTV constructs were linearized with the restriction enzyme SpeI (New England Biolabs [Genesearch]), and RNA was transcribed by T7 RNA polymerase using the mMESSAGE mMACHINE T7 kit (Thermo Fisher Scientific).
as §1, §2

[3] = MβCD-treated oocytes (15 mM, 30 min, 32°C)
[4] = WT, washout after 4 min IC50 concentration of inhibitor, Table S11

Half-life (transport current recovery) (WT GlyT2 [1]; Control oocytes, Table S8) | Half-life (transport current recovery) (WT GlyT2 [1]; [3]) | Recovery at 30 min (WT GlyT2 [1]; [3]) | Half-life (transport current recovery) (WT GlyT2 [1]; MβCD-treated oocytes (15 mM, 30 min, 32°C), listed as OLLeu) | Half-life (transport current recovery) (WT GlyT2 [1]; [4]) | Recovery at 30 Min (WT GlyT2 [1]; [4]) | Recovery at 30 min (WT GlyT2 [1]; Control oocytes, Table S8) | Recovery at 30 min (WT GlyT2 [1]; MβCD-treated oocytes (15 mM, 30 min, 32°C), listed as OLLys) | SMILES | EC50 (WT GlyT2 [2]) [µM] | EC50 (GlyT2 F515V mutant) [µM]
2.3 ± 0.5 min | 3.1 ± 0.3 min | 92.2 ± 3.7 % | unchanged | 2.3 ± 0.5 min | 51.1 ± 2.7% | – | – | CCCCCCCC/C=C\CCCCCCCC(=O)N[C@@H](CC(C)C)C(=O)O [Oleoyl-L-Leucine, oleoyl-L-leucine] | – | –
– | – | – | – | – | – | – | – | NCC(=O)O [Glycine, glycine] | 18 | 7.8
No Recovery | No Recovery | No Recovery | – | No Recovery | No Recovery | No Recovery | – | CCCCCCCC/C=C\CCCCCCCC(=O)N[C@@H](Cc1c[nH]c2ccccc12)C(=O)O [Oleoyl-L-Tryptophan, oleoyl-L-tryptophan] | – | –
– | – | 92.4% | – | – | – | 45.7% | – | CCCCCCCC/C=C\CCCCCCCC(=O)O[C@H](CC(=O)[O-])C[N+](C)(C)C [Oleoyl-L-Carnitine, oleoyl-L-carnitine] | – | –
– | – | 63.0 ± 4.1% | – | – | 55.1 ± 1.5% | – | no difference was observed | CCCCCCCC/C=C\CCCCCCCC(=O)N[C@@H](CCCCN)C(=O)O [Oleoyl-L-Lysine, oleoyl-L-lysine] | – | –
